Results on eleven molecules are retold here after paper PMC6965176, “Targeting Forward and Reverse EphB4/EFNB2 Signaling by a Peptide with Dual Functions” (Scientific Reports, 2020).

The target of one series is T1, EphB4 (Homo sapiens, UniProt P54760).
T1 construct: purchased R&D Systems
T1 sequence (P54760 16-987): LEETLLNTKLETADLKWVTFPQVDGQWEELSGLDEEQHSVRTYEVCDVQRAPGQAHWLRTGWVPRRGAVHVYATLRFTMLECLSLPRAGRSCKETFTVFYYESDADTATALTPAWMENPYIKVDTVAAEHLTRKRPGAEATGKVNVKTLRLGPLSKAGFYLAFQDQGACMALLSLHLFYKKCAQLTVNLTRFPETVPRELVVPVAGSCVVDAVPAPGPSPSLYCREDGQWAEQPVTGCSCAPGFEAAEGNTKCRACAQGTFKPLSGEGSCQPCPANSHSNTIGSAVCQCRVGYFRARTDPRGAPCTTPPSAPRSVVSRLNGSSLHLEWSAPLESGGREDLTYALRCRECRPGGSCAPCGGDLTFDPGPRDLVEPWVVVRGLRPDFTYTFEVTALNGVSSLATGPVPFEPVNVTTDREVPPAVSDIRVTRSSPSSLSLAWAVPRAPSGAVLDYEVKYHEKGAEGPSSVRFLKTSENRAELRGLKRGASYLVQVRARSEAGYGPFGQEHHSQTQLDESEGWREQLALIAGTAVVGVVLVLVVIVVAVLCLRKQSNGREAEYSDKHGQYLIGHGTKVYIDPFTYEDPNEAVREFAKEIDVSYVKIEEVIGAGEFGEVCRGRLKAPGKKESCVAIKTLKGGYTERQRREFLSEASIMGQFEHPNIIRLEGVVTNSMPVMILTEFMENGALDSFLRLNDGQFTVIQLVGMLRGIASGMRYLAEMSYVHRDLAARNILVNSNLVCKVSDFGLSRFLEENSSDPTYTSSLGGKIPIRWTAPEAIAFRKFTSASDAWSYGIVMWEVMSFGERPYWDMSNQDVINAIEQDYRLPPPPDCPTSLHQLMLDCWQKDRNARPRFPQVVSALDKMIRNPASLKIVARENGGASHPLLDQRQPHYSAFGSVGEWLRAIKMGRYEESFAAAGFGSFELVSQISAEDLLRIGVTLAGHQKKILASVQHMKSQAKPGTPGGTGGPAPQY
As to the kind of experiment: SPR (BIACore) binding of peptides to immobilized EphB4. To be noted: Table S1; SPR BIACore, EphB4 immobilized on CM5 chip, 25°C, HBSEP buffer pH 7.4, peptides 1.6-800 nM, duplicate, KD = Koff/Kon, 1:1 Langmuir model. An excerpt: Surface plasmon resonance (SPR) binding and competition assays.
Immunoblotting, immunoprecipitation, and co-immunoprecipitation.
For orientation: In SPR one partner is held on a chip, and binding of the other changes the refractive index at the surface.

For series [1] the following is noted: systemic exposure; cited from earlier work. An excerpt: Our group previously employed CCPM successfully to improve pharmacokinetics and enhance peptide stability for in vivo imaging applications[28]–[31]. The cross-linked core of CCPM prevents premature micelle disintegration, while the brush-like polyethylene glycol forms a dense protective layer on the micelle surface that minimizes micelle uptake by the organs of the mononuclear phagocytic system.

The next series addresses T2, recombinant human EphB4 (human, UniProt P54760 16-539).
T2 construct: EphB4 (ephrin type-B receptor 4), human, recombinant; Amine-coupled to CM5 chips for SPR; a soluble extracellular form is likely; In the functional rows it stands for the EphB4 of the ovarian cancer cells; also called rhEphB4; source: bought: R&D Systems
T2 sequence (looked up): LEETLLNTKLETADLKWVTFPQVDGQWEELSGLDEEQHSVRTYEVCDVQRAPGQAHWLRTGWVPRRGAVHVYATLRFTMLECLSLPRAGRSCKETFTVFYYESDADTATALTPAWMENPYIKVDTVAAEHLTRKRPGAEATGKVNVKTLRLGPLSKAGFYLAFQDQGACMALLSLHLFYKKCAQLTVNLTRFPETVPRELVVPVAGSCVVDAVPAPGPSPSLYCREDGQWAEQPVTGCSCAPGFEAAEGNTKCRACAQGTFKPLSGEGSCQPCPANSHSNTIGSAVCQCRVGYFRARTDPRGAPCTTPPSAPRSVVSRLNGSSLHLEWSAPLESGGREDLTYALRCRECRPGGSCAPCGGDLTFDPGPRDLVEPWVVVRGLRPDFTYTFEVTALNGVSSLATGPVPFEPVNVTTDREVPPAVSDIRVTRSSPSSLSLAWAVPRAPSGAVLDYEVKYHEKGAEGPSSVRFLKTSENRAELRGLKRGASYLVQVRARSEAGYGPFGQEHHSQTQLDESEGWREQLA
Kind of series: SPR; BIACore 3000; rhEphB4 amine-coupled to CM5 chips; peptides injected at 1.6 nM to 800 nM, 30 uL/min, in duplicate; 25 C; HBSEP buffer (0.01 M HEPES pH 7.4, 0.15 M NaCl, 3 mM EDTA, 0.005% P20); 1:1 Langmuir binding model, KD = Koff/Kon. To be noted: both partners purified.

The subject of another series is RF24 cells. As to the kind of experiment: Tubule formation of immortalized endothelial cells on Matrigel. The class given is cell-based. The conditions noted are these: BIDEN-AP 15 µM or EFNB2-Fc 2 nM, 24 h, number of nodes (Fig. 4A,B). How it is done:
Figure 4 BIDEN-AP–based agents inhibit tube formation and sensitize resistant endothelial cells to anti-VEGF antibody. (A,B) Tube formation by RF24 cells treated with EFNB2-Fc (2 nM) or BIDEN-AP (15 µM) compared to untreated controls (CTL). Representative data from three independent experiments are presented. (A) Representative microphotographs of tubes formed by RF24 cells are shown (n = 3). Images were taken at × 100 magnification. (B) Quantification of the number of nodes per field in three technical replicates. […] (C) Representative flow cytometry plots from three independent experiments of RF24_Bev cells are shown here. SYTOX-negative staining represents the live cell population.
Matrigel (Becton Dickinson, Bedford, MA) was used to assess formation of capillary-like structures by RF24 cells on a basement membrane. Twelve-well Costar plates (Corning, Corning, NY) were coated with Matrigel (10 mg/mL) according to the manufacturer’s instructions. RF24 cells (1.0 × 10^4 cells/well) were seeded on Matrigel-coated plates and incubated at 37 °C for 60 min. […] The degree of tubule formation was determined by the number of nodes. […] The nodes for each image were counted manually. Five images (×100 magnification) per treatment were counted double blindly. Data are expressed as a percentage of the number of tubes in untreated control wells.

The target in series [2] is T3, recombinant human EphB4 (human), P54760.
T3 chain: T2 sequence (looked up)
As to the kind of experiment: SPR; BIACore 3000; rhEphB4 amine-coupled to CM5 chips; peptides injected at 1.6 nM to 800 nM, 30 uL/min, in duplicate; 25 C; HBSEP buffer (0.01 M HEPES pH 7.4, 0.15 M NaCl, 3 mM EDTA, 0.005% P20); 1:1 Langmuir binding model, KD = Koff/Kon.

The target of series [3] is T4, EphB4, purified recombinant human (rhEphB4) (human, UniProt P54760 16-987). Kind of series: SPR; competition: serial dilutions of BIDEN-AP (2 nM to 1000 nM) mixed with human EphB4 (30 nM) and injected onto EFNB2-Fc-coated CM-5 chips. The conditions noted are these: both partners purified.
Series [4] addresses T4, EphB4, purified recombinant human …. Kind of series: SPR; EphB4 immobilised on sensor chips, peptides or CCPM-BIDEN-AP injected; BIACore 3000; BIDEN-AP data fitted to a 1:1 mass transfer interaction model; details in the Supplementary Information. To be noted: both partners purified.

Non-standard residues stand in square brackets, D forms with d. Residues, ends and D or L forms follow the SMILES beside them. No end group written: not given here.

Molecule `CC[C@H](C)[C@H](NC(=O)[C@@H]1CCCN1C(=O)CNC(=O)[C@H](CC(N)=O)NC(=O)[C@@H]1CCCN1C(=O)[C@H](CO)NC(=O)[C@H](Cc1ccccc1)NC(=O)[C@H](CC(C)C)NC(=O)[C@H](Cc1ccc(O)cc1)NC(=O)[C@H](CC(N)=O)NC(=O)[C@@H](N)[C@@H](C)O)C(=O)N[C@@H](C)C(=O)N[C@H](CCCNC(=N)N)C(=O)N[C@@H](C)C(=O)N[C@@H](Cc1c[nH]c2ccccc12)C(N)=O` [B4-002] gave a Kd at EphB4 of 39 nM.
For the molecule `CC[C@H](C)[C@H](NC(=O)[C@@H]1CCCN1C(=O)CNC(=O)[C@H](CC(N)=O)NC(=O)[C@@H]1CCCN1C(=O)[C@H](CO)NC(=O)[C@H](Cc1ccccc1)NC(=O)[C@@H](CC(C)C)NC(=O)[C@H](Cc1ccc(O)cc1)NC(=O)[C@H](CC(N)=O)NC(=O)[C@@H](N)[C@@H](C)O)C(=O)N[C@@H](C)C(=O)N[C@@H](CCCNC(=N)N)C(=O)N[C@@H](C)C(=O)N[C@@H](Cc1c[nH]c2ccccc12)C(N)=O` [B4-004] (H-TNY[dL]FSPNGPIARAW-NH2), the Kd on EphB4 was 65 nM.
The molecule `CC[C@H](C)[C@H](NC(=O)[C@@H]1CCCN1C(=O)CNC(=O)[C@H](CC(N)=O)NC(=O)[C@@H]1CCCN1C(=O)[C@H](CO)NC(=O)[C@@H](Cc1ccccc1)NC(=O)[C@H](CC(C)C)NC(=O)[C@H](Cc1ccc(O)cc1)NC(=O)[C@H](CC(N)=O)NC(=O)[C@@H](N)[C@@H](C)O)C(=O)N[C@@H](C)C(=O)N[C@@H](CCCNC(=N)N)C(=O)N[C@@H](C)C(=O)N[C@@H](Cc1c[nH]c2ccccc12)C(N)=O` [B4-005] (H-TNYL[dF]SPNGPIARAW-NH2) showed a Kd at EphB4 of 75 nM.
As for TNYLFSPNGPIARA-NH2 [B4-008], the affinity at EphB4, expressed as Kd, was 13 nM.
With TNYLFSPNGPIARAW-NH2 [TNYL-RAW], the “area-under-the time curve [AUC]” value in series [1] is given as 29.1 %ID h/mL.
For YSA-TNYL-RAW-dimer [B4-003], binding on EphB4 was put at a Kd of 21 nM.

B1: TNYL-RAW (peptide)
peptide: TNYLFSPNGPIARAW
notes: known EphB4 antagonist peptide, 15 residues (P1-P15); Made on Rink resin, so a C-terminal amide is likely; source: synthetic peptide (solid phase, Rink resin, HPLC purified)
As to B1, in the series with recombinant human EphB4, the dissociation constant (Kd) came to 3.1 nM.

B2: Cyclo(KTNYLFSPNGPIARAWD) (peptide)
peptide: KTNYLFSPNGPIARAWD
modifications: also: cyclic, ring bond not given here
notes: TNYL-RAW with an added Lys before and Asp after it, cyclised; MW 1932 Da; also called B4-001; source: synthetic peptide (solid phase, Rink resin, HPLC purified)
As for B2, the Kd in the series with recombinant human EphB4 turned out to be 4.4 nM.

B3: EFNB2-Fc: ephrin B2 ligand fused to Fc, natural ligand of EphB4 (protein)
chain: IVLEPIYWNSSNSKFLPGQGLVLYPQIGDKLDIICPKVDSKTVGQYEYYKVYMVDKDQADRCTIKKENTPLLNCAKPDQDIKFTIKFQEFSPNLWGLEFQKNKDYYIISTSNGSLEGLDNQEGGVCQTRAMKILMKVGQDASSAGSTRNKDPTRRPELEAGTNGRSSTTSPFVKPNPGSSTDGNSAGHSGNNILGSEVALFA
modifications: left off: Fc, end not stated, kept
notes: ephrin B2 ligand fused to Fc, natural ligand of EphB4
Turning to B3, the “formation of capillary-like tubes” value in the series with RF24 cells is listed as “significantly inhibited the formation of capillary-like tubes”.

B4: YSA-TNYL-RAW-dimer (peptide)
chain: TNYLFSPNGPIARAW
modifications: not checked
Take B4: the Kd in series [2] stood at 21 nM.

B5: BIDEN-AP (bi-directional ephrin agonist peptide), TNd(Y)LFSPNGPIARAW (peptide)
peptide: TN[dY]LFSPNGPIARAW
notes: TNYL-RAW with L-Tyr-P3 replaced by D-Tyr; source: synthetic peptide
For B5, the IC50 in series [3] turned out to be 4 nM. Further, the Kd in series [4] is 7 nM.

By Kd is commonly meant the equilibrium constant for the complex coming apart. In general, IC50 refers to the midpoint of a concentration-inhibition curve.
